Blank lines part the entries; values can stand above or below the compound they belong to. Calls of active or inactive are those of the source.
How the values were obtained:
[1] = molecular target: Ras and Rab interactor 1/Tyrosine-protein kinase ABL1 (Homo sapiens, UniProt P00519+Q13671); type: functional;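 further: biochemical TR-FRET dose-response test measuring inhibition of binding between Rin1 and Abl proteins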
[2] = molecular target: T1, Polyadenylate-binding protein 1 (Homo sapiens, UniProt P11940); test: PABP1 MLLE–PAM2 interaction inhibitors, dose response, miRNA deadenylation inhibitor project, biochemical, fluorescence polarization, Cy5-PAM2 peptide, secondary (AID 602260); type: functional; conditions: read-out: IC50_Mean
T1 sequence (P11940 whole entry): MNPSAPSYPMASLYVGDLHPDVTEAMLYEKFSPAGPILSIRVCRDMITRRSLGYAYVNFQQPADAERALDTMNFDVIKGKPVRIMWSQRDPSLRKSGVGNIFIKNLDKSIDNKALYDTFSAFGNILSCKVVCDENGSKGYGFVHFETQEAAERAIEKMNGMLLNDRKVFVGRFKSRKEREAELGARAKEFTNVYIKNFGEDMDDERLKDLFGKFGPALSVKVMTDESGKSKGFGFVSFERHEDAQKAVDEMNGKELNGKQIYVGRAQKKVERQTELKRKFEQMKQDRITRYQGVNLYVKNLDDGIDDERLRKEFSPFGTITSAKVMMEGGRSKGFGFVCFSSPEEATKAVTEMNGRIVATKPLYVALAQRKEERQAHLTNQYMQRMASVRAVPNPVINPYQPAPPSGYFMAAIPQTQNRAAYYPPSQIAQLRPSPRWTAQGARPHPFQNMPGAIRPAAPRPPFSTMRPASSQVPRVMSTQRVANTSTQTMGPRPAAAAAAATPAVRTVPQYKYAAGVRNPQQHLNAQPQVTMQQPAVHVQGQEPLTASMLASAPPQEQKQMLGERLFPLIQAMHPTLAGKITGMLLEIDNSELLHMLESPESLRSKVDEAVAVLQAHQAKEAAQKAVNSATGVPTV

[3] = molecular target: T1, Polyadenylate-binding protein 1; test: PABP1 MLLE–PAM2 binding inhibitor potency, dose response, biochemical, fluorescence polarization, FITC-PAM2 peptide (AID 602259); type: functional; conditions: read-out: IC50_Mean
[4] = molecular target: T2, Oxysterols receptor LXR-beta (Homo sapiens, UniProt P55055); type: functional, cell-based;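 further: agonist activity at LXR measured by a cell-based luminescence readout across a dose range, run as a counterscreen for daf-12 agonists; HEK293 cells with Gal4-LXR fusion and GAL4-driven luciferase reporter; potency for activation of Gal4-LXR reporter so compounds are agonists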
T2 sequence (P55055 whole entry): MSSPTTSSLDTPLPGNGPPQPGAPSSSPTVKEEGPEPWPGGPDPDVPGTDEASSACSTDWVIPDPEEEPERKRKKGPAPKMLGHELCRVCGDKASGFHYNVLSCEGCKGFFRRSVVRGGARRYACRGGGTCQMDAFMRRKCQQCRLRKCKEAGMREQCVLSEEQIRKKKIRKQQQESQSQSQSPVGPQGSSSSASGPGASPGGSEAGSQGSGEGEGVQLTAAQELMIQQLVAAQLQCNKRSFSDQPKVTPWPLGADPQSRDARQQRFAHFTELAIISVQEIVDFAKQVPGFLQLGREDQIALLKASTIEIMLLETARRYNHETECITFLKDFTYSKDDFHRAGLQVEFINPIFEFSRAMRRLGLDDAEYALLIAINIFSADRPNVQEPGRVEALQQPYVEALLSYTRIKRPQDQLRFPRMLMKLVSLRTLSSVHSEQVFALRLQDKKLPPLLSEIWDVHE

Protein skinhead-1 = molecular target: T3, Protein skinhead-1 (Caenorhabditis elegans, UniProt P34707); type: functional
T3 sequence (P34707 whole entry): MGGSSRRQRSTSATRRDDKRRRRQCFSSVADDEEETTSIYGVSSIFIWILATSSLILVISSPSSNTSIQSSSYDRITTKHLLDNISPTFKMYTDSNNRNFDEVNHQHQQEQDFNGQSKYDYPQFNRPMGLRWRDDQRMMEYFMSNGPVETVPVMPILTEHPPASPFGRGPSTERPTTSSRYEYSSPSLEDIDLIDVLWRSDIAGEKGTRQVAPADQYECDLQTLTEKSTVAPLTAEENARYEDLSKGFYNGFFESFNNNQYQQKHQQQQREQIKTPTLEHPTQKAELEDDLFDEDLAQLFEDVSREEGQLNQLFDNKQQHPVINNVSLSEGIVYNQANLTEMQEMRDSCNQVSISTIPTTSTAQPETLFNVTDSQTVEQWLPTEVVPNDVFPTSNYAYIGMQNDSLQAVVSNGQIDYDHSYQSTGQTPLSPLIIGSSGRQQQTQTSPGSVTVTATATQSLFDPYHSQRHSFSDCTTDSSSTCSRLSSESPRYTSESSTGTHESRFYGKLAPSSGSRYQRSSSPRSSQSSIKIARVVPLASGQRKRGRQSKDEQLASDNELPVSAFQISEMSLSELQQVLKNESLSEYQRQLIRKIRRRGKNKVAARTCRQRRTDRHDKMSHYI

[5] = molecular target: Dual specificity protein phosphatase 3 (Homo sapiens, UniProt P51452); test: VHR phosphatase inhibition, dose response, selectivity assay for STEP inhibitor project, biochemical (AID 602374); type: functional; conditions: read-out: IC50_Mean
[6] = molecular target: Tyrosine-protein phosphatase non-receptor type 11 (Homo sapiens, UniProt Q06124); test: SHP2 phosphatase inhibition, dose response, selectivity assay for STEP inhibitor project, biochemical (AID 602367); type: functional; conditions: read-out: IC50_Mean
[7] = molecular target: Tyrosine-protein phosphatase non-receptor type 5 (Homo sapiens, UniProt P54829); test: STEP phosphatase inhibitors, confirmation, biochemical, fluorescence intensity, uHTS hits (AID 602372); type: functional; conditions: read-out: IC50_Mean
Chain of Tyrosine-protein phosphatase non-receptor type 5 (P54829 whole entry): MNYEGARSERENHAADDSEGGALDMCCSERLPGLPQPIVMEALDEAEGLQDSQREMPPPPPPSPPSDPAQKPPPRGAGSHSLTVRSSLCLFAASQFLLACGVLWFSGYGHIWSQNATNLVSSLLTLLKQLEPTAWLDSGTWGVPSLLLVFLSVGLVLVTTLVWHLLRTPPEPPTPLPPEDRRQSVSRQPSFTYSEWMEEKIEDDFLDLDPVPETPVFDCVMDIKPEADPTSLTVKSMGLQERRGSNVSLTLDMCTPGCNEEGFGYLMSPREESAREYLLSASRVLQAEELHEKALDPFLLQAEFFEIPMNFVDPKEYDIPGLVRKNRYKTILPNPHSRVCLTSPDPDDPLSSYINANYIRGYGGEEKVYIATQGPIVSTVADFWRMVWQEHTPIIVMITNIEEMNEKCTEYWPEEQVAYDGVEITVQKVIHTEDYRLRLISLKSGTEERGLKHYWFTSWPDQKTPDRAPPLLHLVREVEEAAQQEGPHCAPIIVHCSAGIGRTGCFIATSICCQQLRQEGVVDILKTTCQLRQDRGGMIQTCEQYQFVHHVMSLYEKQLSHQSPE

[8] = molecular target: T4, Nuclear receptor subfamily 0 group B member 1 (Homo sapiens, UniProt P51843); type: functional, cell-based;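 further: HEK293T cells transfected with SF-1 and DAX-1 plus StAR promoter luciferase reporter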
T4 sequence (P51843 whole entry): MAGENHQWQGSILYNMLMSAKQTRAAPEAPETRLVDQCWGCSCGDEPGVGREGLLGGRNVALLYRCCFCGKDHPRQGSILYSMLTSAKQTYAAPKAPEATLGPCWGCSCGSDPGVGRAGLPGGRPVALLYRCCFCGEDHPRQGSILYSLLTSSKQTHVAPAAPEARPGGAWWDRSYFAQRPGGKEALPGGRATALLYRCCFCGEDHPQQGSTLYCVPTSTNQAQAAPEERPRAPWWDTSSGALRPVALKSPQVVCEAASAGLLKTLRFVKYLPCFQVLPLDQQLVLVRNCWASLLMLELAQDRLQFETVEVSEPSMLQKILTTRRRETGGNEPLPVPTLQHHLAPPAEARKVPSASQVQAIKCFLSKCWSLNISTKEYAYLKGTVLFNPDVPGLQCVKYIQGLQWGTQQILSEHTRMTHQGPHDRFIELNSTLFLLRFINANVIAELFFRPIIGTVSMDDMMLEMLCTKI

cells = type: functional, cell-based
[9] = THP-1 cell cytotoxicity, dose response, cytotoxicity control for Vif-APOBEC3G degradation inhibitor project, THP-1 cells (AID 1117359); type: functional; conditions: Human immunodeficiency virus 1, THP-1
Genome polyprotein = Genome polyprotein (dengue virus type 2, UniProt P29990); test: Dengue-2 NS5 methyltransferase inhibitors, primary screen, biochemical, confirmation dose response (AID 588689); type: functional
[10] = molecular target: DNA (cytosine-5)-methyltransferase 1 (Homo sapiens, UniProt P26358); test: DNMT1 methyltransferase inhibitors, confirmation, biochemical, fluorescent molecular beacon (AID 602386); type: functional
Aurora kinase B = Aurora kinase B (Homo sapiens, UniProt Q96GD4); type: functional
[11] = molecular target: Vascular endothelial growth factor receptor 2 (Homo sapiens, UniProt P35968); type: functional
Chain of Vascular endothelial growth factor receptor 2 (P35968 whole entry): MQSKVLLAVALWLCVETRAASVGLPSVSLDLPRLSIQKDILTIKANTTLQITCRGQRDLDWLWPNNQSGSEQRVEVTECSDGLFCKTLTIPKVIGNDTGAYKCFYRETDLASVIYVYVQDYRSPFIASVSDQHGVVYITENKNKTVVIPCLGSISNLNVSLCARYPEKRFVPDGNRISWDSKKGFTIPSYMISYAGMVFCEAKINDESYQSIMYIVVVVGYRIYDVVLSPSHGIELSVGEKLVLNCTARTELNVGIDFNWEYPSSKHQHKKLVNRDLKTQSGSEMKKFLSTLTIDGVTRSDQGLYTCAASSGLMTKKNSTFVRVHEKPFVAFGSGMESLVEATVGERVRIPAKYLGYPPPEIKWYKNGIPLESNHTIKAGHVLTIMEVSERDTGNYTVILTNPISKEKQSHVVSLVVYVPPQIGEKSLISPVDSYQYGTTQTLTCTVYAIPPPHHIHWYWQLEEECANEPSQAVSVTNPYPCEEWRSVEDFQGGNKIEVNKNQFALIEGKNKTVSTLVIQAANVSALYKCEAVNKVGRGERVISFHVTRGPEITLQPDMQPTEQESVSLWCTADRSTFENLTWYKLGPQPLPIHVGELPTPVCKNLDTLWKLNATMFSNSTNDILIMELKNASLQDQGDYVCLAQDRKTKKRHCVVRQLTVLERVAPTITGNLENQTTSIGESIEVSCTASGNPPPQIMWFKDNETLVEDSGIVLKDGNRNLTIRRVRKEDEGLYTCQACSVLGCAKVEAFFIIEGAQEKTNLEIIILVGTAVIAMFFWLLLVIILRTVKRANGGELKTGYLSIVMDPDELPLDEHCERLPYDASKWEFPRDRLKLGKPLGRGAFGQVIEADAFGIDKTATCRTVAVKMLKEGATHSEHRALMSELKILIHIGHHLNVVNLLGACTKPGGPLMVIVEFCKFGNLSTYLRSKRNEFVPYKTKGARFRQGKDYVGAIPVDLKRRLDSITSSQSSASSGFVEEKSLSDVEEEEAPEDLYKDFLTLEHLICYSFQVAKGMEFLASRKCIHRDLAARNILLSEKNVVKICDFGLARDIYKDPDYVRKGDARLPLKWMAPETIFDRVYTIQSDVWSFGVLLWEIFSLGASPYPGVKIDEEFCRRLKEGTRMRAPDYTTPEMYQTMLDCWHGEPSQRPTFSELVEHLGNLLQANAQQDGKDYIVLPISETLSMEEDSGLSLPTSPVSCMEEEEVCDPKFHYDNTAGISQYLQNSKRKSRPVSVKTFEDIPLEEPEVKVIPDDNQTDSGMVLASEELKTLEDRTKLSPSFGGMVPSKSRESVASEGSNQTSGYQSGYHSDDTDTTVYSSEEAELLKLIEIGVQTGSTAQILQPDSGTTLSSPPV

Aurora kinase A = molecular target: T5, Aurora kinase A (Homo sapiens, UniProt O14965); type: functional;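 further: value from the Navigating the Kinome kinase panel profiling, panel entry STK6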
T5 sequence (O14965 whole entry): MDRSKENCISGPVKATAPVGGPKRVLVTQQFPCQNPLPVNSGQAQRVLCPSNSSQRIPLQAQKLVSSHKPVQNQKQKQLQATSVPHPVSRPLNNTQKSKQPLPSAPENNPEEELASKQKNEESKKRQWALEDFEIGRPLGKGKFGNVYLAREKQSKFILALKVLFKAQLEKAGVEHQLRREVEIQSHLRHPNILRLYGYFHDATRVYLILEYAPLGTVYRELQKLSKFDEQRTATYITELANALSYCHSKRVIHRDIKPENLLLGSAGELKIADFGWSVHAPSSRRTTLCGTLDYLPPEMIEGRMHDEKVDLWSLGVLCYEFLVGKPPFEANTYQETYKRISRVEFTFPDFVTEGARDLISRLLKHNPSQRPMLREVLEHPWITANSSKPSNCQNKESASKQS

[12] = miR-122 activators in hepatoma reporter cells, dose response, cell-based, Huh7 psiCHECK-miR122, Renilla luciferase, cherry-picked (AID 651956); type: functional;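 further: huh7 hepatoma cells stably carrying a psiCHECK-2 miR-122 sensor plasmid; renilla luciferase signal reporting endogenous miR-122 activity after 48 h compound exposure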
[13] = CEM21 lymphoblast cell cytotoxicity, dose response, cytotoxicity control for viral fusion inhibitor project, CellTiter-Glo luminescence, cherry-picked (AID 652042); type: functional, cell-based;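 further: potency for signal decrease meaning cytotoxicity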
[14] = inhibitors of clade B AD8 Env fusion, dose response, cell-based, cherry-pick (AID 652062); type: functional;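 further: luciferase signal from cell-cell fusion driven by HIV-1 clade B AD8 Env; potency is for inhibitors of fusion seen as a drop in luminescence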
[15] = inhibitors of HIV Env-driven cell fusion, dose response, cherry-pick (AID 652057); type: functional, cell-based
[16] = molecular target: Protein disulfide-isomerase (Homo sapiens, UniProt P07237); test: PDI inhibitors, insulin turbidity readout, confirmation, biochemical, dry powder samples, set 2 (AID 652146)
Chain of Protein disulfide-isomerase (P07237 whole entry): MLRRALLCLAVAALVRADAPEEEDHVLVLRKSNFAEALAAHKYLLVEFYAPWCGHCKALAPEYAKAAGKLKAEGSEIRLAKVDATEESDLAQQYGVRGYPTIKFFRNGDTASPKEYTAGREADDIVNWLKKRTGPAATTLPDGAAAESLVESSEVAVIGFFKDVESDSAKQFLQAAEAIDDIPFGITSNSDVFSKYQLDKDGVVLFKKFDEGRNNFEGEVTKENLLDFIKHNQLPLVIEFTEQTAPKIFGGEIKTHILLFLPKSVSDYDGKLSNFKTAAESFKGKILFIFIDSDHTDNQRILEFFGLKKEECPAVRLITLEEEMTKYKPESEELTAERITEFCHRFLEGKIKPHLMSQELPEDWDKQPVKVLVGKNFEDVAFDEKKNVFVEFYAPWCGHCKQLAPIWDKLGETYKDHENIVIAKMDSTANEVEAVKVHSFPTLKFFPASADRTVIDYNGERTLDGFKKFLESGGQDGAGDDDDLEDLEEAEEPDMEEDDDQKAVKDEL

Chain of Ras and Rab interactor 1/Tyrosine-protein kinase ABL1 (P00519 whole entry): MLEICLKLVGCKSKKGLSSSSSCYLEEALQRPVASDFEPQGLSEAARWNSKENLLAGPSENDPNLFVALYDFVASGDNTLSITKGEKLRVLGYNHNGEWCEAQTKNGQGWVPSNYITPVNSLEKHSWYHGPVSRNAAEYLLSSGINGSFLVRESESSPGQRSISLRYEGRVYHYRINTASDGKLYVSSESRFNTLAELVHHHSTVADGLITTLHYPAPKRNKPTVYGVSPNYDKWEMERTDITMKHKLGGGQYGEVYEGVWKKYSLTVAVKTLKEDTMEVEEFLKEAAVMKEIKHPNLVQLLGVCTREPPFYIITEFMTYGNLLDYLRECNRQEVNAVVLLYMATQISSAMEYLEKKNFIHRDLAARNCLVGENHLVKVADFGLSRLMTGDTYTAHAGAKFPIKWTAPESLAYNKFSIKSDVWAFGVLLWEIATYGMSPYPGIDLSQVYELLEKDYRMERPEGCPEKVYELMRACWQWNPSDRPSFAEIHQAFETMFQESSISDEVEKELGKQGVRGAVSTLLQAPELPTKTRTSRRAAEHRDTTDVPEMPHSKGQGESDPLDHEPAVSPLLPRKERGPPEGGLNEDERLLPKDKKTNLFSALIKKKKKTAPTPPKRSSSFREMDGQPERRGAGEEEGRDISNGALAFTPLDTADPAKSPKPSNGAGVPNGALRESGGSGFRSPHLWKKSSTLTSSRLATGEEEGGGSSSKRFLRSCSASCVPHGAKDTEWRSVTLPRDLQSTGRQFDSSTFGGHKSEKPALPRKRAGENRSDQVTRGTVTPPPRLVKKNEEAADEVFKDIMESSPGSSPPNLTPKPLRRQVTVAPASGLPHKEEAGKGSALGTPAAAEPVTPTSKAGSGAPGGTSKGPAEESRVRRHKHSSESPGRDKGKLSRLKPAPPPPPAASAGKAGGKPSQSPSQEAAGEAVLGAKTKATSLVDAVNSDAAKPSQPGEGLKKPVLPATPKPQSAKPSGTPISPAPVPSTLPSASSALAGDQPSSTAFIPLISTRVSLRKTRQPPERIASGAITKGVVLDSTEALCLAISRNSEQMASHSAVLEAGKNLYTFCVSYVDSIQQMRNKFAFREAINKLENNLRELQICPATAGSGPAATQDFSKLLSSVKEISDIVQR
Chain of Ras and Rab interactor 1/Tyrosine-protein kinase ABL1 (Q13671 whole entry): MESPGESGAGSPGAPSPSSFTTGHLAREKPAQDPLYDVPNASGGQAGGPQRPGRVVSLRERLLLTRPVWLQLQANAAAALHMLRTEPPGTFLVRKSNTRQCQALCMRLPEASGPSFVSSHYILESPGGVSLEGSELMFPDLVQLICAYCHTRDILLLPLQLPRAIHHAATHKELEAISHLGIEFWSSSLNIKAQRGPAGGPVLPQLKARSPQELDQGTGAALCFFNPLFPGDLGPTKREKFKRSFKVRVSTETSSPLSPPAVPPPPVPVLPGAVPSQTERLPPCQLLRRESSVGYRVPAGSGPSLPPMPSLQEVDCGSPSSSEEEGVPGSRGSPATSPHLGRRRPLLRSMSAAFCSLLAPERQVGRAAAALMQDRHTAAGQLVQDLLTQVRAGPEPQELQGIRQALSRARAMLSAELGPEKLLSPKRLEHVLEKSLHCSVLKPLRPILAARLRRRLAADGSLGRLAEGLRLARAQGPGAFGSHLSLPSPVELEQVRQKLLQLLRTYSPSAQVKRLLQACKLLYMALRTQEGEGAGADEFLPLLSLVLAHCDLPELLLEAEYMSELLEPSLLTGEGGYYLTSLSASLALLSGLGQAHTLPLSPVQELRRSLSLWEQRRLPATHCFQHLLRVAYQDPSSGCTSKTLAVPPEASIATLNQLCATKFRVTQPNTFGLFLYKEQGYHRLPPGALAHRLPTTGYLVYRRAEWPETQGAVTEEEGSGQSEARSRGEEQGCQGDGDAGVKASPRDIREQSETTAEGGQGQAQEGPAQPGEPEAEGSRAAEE

IC50 [1]: 1.45 µM (active) | IC50 [2]: > 66 µM (inactive) | IC50 [3]: > 66 µM (inactive)
Compound: CCOC(=O)CCCCC(=O)c1[nH]c(O)nc1CSc1nc(O)c(C#N)c(-c2ccccc2)n1

EC50 [4]: > 67.1 µM (inactive)
Compound: c1ccc([C@H]2CN3C(=N2)Sc2ccccc23)cc1

IC50 [1]: 1.86 µM (active)
Compound: CCOC(=O)CCCCC(=O)c1[nH]c(O)nc1Cn1cnc2ccccc21

IC50 (Protein skinhead-1): > 100 µM (inactive) | IC50 [5]: 1.62 µM (active) | IC50 [6]: 8.43 µM (active) | IC50 [7]: 23.2 µM (inactive)
Compound: COc1cccc(-c2cc(C(=O)Nc3nc4ccccc4s3)c3ccccc3n2)c1

Compound: COC(=O)C1CCC(=O)N1C(c1ccc(OC)cc1)c1cc(OC)c(OC)c(OC)c1 (stereo not drawn)
IC50 [8]: > 67.5 µM (inactive) | IC50 (cells): > 67.5 µM (inactive)

Compound: O=C1C=C(N2CC2)c2ccccc2C1=O
CC50 [9]: 32.7 µM (active) | IC50 (Protein skinhead-1): > 100 µM (inactive) | IC50 (Genome polyprotein): 29.7 µM (active) | IC50 [10]: 1.87 µM (active)

Ki (Aurora kinase B): > 2.51 µM (inactive) | Ki [11]: 0.0794 µM (active) | Ki (Aurora kinase A): > 2 µM (inactive)
Compound: O=C1Nc2ccccc2Nc2cc(-c3ccccc3O)ccc21

Compound: CCNC(=O)C[C@@H]1CC[C@@H]2[C@@H](COc3ccc(NC(=O)C4CCCCC4)cc3C(=O)N2C)O1
AC50 [12]: 33.4 µM (active)

Compound: C[C@H](CO)N1C[C@H](C)[C@H](CN(C)S(=O)(=O)c2ccccc2)Oc2ccc(NC(=O)Nc3ccc4c(c3)OCO4)cc2CC1=O
AC50 [13]: 58.4 µM (active) | AC50 [14]: 1.15 µM (active) | AC50 [15]: < 0.26 µM (active)

AC50 [16]: > 30 µM (inactive)
Compound: CCOC(=O)C1(CCOC)CCCN(Cc2ccc(Cl)cc2)C1 (stereo not drawn)

From ChEMBL document CHEMBL1201862, “PubChem BioAssay data set” (2004)
